Data: patent US20080064668A1, “1,3-Diacylated, 26,27-Alkyl/Haloakyl Vitamin D3 Compounds and Methods of Use Thereof” (BioXell S.p.A., priority 2003, published 2008)
pIC50: −log10 of the molar value. Entries after “also recorded” stand apart in the source; their conditions may differ.

Key:
RT112 = experiment: Proliferation assay using bladder cancer cell lines, RT112; format: cell-based, human; details: Homo sapiens, RT-112, 72 h, 72 h culture, CyQuant proliferation assay
Protocol: (§1) Bladder cancer cell lines (T24, RT112, HT1376 and RT4 are human bladder cancer cell lines; NHEK are normal human keratinocytes) were obtained from the European Collection of Cell Cultures (Salisbury, UK). Cells were plated at 3×10^3 per well, in flat bottomed 96-well plates in 100 μl of DMEM medium containing: 5% Fetal Clone I, 50 μg/l gentamicin, 1 mM sodium pyruvate and 1% non-essential amino acids. After culturing for 24 h at 37° C. in 5% CO2, to allow cells to adhere to the plates, VDR ligands (compounds (2), (4), (5) and other vitamin D3 analogs as shown in Table 4) were added at concentrations ranging from 100 μM to 0.3 μM in 100 μl of above-mentioned complete medium. After a further 72 h of culture, cell proliferation was measured using a fluorescence-based proliferation assay kit. (CyQuant Cell Proliferation Assay Kit, Molecular Probes, Eugene, Oreg., USA). The IC50 was calculated from the regression curve of the titration data.

RT4 = experiment: Proliferation assay using bladder cancer cell lines, RT4; format: cell-based, human; details: Homo sapiens, RT-4, 72 h, 72 h culture, CyQuant proliferation assay
Protocol: as §1

NHEK = experiment: Proliferation assay, NHEK normal human keratinocytes; format: cell-based; details: Homo sapiens, NHEK; 72 h culture, CyQuant proliferation assay
Protocol: as §1

ECV = experiment: Proliferation assay using bladder cancer cell lines, ECV; format: cell-based, human; details: Homo sapiens; 72 h culture, CyQuant proliferation assay
[1] = MTD in CD1 mouse (highest non-hypercalcemic dose); details: in vivo
[2] = Determination of Maximum Tolerated Dose (MTD); details: for MTD at 4 days: female, C57BL/6, mouse, in vivo, po
Protocol: The maximum tolerated dose of the vitamin D3 compounds of the invention were determined in eight week-old female C57BL/6 mice (3 mice/group) dosed orally (0.1 ml/mouse) with various concentrations of Vitamin D3 analogs daily for four days. Analogs were formulated in miglyol for a final concentration of 0.01, 0.03, 0.1 0.3, 1, 3, 10, 30, 100 and 300 μg/kg when given at 0.1 ml/mouse p.o. daily. Blood for serum calcium assay was drawn by tail bleed on day five, the final day of the study.

HT 1376 = experiment: Proliferation assay using bladder cancer cell lines, HT1376; format: cell-based, human; details: Homo sapiens, HT-1376; 72 h culture, CyQuant proliferation assay
Protocol: as §1

Human BPH cells = experiment: BPH cell proliferation assay (testosterone-induced); format: cell-based; details: 48 h
Protocol: Human BPH cells, prepared, maintained and used as previously described in Crescioli C, et al. Journal of Clinical and Endocrinology Metabolism (2000) 85 p 2576-2583, were obtained from prostate tissues derived from 5 patients, who underwent suprapubic adenomectomy for BPH, after informed consent and approval by the Local Ethical Committee.
For all cell proliferation assays, 4×10^4 BPH cells were seeded onto 12-well plates in their growth medium, starved in red- and serum-free medium containing 0.1% BSA for 24 h, and then treated with specific stimuli for 48 h. Cells in phenol red- and serum-free medium containing 0.1% BSA were used as controls. Thereafter, cells were trypsinized, and each experimental point was derived from hemocytometer counting, averaging at least six different fields for each well, as previously reported (see Crescioli C, et al. Journal of Clinical and Endocrinology Metabolism (2000) 85 p 2576-2583).
Growth assays were also carried out using a fixed concentration of androgens (10 nM) with or without vitamin-D analogs (1 nM, 10 nM) or the anti-androgens finasteride (F, 1 nM) and cyproterone acetate (Cyp, 100 nM. Growth assays were also performed using a fixed concentration of T (10 nM) or GFs (10 ng/ml) with or without the vitamin-D analogs. (10 nM).
In the same experiment, each experimental point was repeated in triplicate or quadruplicate and experiments were performed 3 times. Results are expressed as % variation (mean±SEM) over the maximal T or GF-induced stimulation.

IFN-γ production = IFN-γ production in the mixed leukocyte response (MLR); format: cell-based; details: 120 h; allogeneic PBMC from 2 donors, 5 days, ELISA; read-out: INF-γ IC50
Protocol: Immature dendritic cells (DC) were prepared as described in Romani, N. et al. (Romani, N. et al. (1996) J. Immunol. Meth. 196:137). IFN-γ production by allogeneic T cell activation in the mixed leukocyte response (MLR) was determined as described in Penna, G., et al., J Immunol., 164: 2405-2411 (2000).
Briefly, peripheral blood mononuclear cells (PBMC) were separated from buffy coats by Ficoll gradient and the same number (3×10^5) of allogeneic PBMC from 2 different donors were co-cultured in 96-well flat-bottom plates. The vitamin D3 compounds were added to each of the cultures.

Row | SMILES | pIC50 (RT112) | pIC50 (RT4) | pIC50 (NHEK) | pIC50 (ECV) | MTD [1] | MTD at 4 days [2] | pIC50 (HT 1376) | pIC50 (Human BPH cells) | MTD compared with the corresponding dihydroxy (parent) compound ([2]; versus (1) or (3)) | pIC50 (IFN-γ production)
1 | C=C1/C(=C\C=C2/CCC[C@@]3(C)C2CCC3C2(CCCC(C)(C)O)CC2)C[C@@H](OC(C)=O)C[C@@H]1OC(C)=O (some centres unmarked) [(35), 1,3-Di-O-acetyl-1,25-dihydroxy-20-cyclopropyl-cholecalciferol] | 5.05 | 5.00 | 5.33 | 4.28 | 30 µg/kg | 0.03 mg/kg | 4.17 | 2.90 |  | 
2 | CC(=O)OC1C/C(=C/C=C2\CCC[C@@]3(C)C2CCC3C2(CC#CC(C)(C)O)CC2)C[C@@H](OC(C)=O)C1 (some centres unmarked) [(24), 1,3-Di-O-acetyl-1,25-dihydroxy-20-cyclopropyl-23-yne-19-nor-cholecalciferol] | 4.74 | 5.15 | 5.17 | 4.67 |  |  | < 4.00 |  |  | 
3 | CC(=O)OC1C/C(=C/C=C2\CCC[C@@]3(C)C2CCC3C2(C/C=C/C(O)(C(F)(F)F)C(F)(F)F)CC2)C[C@@H](OC(C)=O)C1 (some centres unmarked) [(31), 1,3-Di-O-acetyl-1,25-dihydroxy-20-cyclopropyl-23E-ene-26,27-hexafluoro-19-nor-cholecalciferol] | 5.15 | 5.05 | 6.05 | 4.61 |  | 0.0003 mg/kg | 4.17 |  |  | 
4 | CC(=O)OC1C/C(=C/C=C2\CCC[C@]3(C)C(C(C)CCCC(C)(C)O)=CCC23)C[C@@H](OC(C)=O)C1 (some centres unmarked) [(18), 1,3-Di-O-acetyl-1,25-dihydroxy-16-ene-19-nor-cholecalciferol] | 6.00 | 5.10 | 5.24 | 4.55 | 3 µg/kg |  | 4.02 | 10.65 |  | 
5 | CC(=O)OC1C/C(=C/C=C2\CCC[C@]3(C)C(C(C)CC#CC(O)(C(F)(F)F)C(F)(F)F)=CCC23)C[C@@H](OC(C)=O)C1 (some centres unmarked) [(4), 1,3-Di-O-acetyl-1,25-Dihydroxy-16-ene-23-yne-26,27-hexafluoro-19-nor-cholecalciferol] | 4.82 | 5.05 | 6.10 | 4.54 |  | 0.01 mg/kg | < 4.00 |  | significantly higher; also recorded: considerably greater | 9.28
6 | CC(=O)OC1C/C(=C/C=C2\CCC[C@@]3(C)C2CCC3C2(C/C=C\C(O)(C(F)(F)F)C(F)(F)F)CC2)C[C@@H](OC(C)=O)C1 (some centres unmarked) [(33), 1,3-Di-O-acetyl-1,25-dihydroxy-20-cyclopropyl-23Z-ene-26,27-hexafluoro-19-nor-cholecalciferol] | 4.80 | 4.74 | 6.05 | < 4.00 |  |  | < 4.00 |  |  | 
7 | C=C1/C(=C\C=C2/CCC[C@]3(C)C(C(C)CCCC(C)(C)O)=CCC23)CC(OC(C)=O)C[C@@H]1OC(C)=O (some centres unmarked) [(11), 1,3-Di-O-acetyl-1,25-dihydroxy-16-ene-cholecalciferol] | 4.74 | 4.12 | 5.30 | 4.22 | 1 µg/kg |  | < 4.00 | 9.12 |  | 
8 | CC(=O)OC1C/C(=C/C=C2\CCC[C@]3(C)C(C(C)CC#CC(C)(C)O)=CCC23)C[C@@H](OC(C)=O)C1 (some centres unmarked) [(20), 1,3-Di-O-Acetyl-1,25-dihydroxy-16-ene-23-yne-19-nor-cholecalciferol] | 6.00 | 5.05 | 5.17 | 4.57 | 30 µg/kg |  | < 4.00 |  |  | 
9 | C=C1/C(=C\C=C2/CCC[C@]3(C)C(C(C)C/C=C/C(C)(C)O)=CCC23)CC(OC(C)=O)C[C@@H]1OC(C)=O (some centres unmarked) [(9), 1,3-Di-O-acetyl-1,25-dihydroxy-16,23E-diene-cholecalciferol] | 4.85 | 4.09 | 5.29 | 4.23 | 3 µg/kg |  | < 4.00 | 8.04 |  | 
